Data reported in PMC7274485, “A symbiotic bacterium of shipworms produces a compound with broad spectrum anti-apicomplexan activity” (PLoS Pathogens, 2020).
“Also recorded” adds a separate entry of the source.

What was measured:
[1] = system: intracellular T. gondii RH strain; assay: Immunofluorescence assay (anti-SAG1) of T. gondii-infected HFF cells; assay type: cell-based, Toxoplasma gondii; conditions: RH strain in HFF; 60 nM trtE for 24 hours (Fig 2B)
Source text: For our initial study, we chose to look for anti-apicomplexan compounds in Teredinibacter turnerae. T. turnerae is a gill symbiotic bacterium common to many species of shipworms. We grew two strains of T. turnerae, T7901 [1] and T7902 [24], in shipworm bacterial media (SBM), pelleted the cells and tested the culture supernatants for activity against T. gondii. We chose T. gondii, a ubiquitous coccidian parasite, as a target parasite because it represents a significant human and animal pathogen, it is easily propagated in vitro and is amenable to genetic manipulation. T. gondii is often used as a model for other, more challenging apicomplexans. […] Parasites were evaluated after 24 hours of treatment by immunofluorescence (IFA) microscopy with rabbit antibody to the T. gondii surface antigen, SAG1 [27]. […]
For all IFAs, the investigator reading the slides and collecting images was blind to the sample treatment. […] 24 hours post treatment, infected cells were fixed with methanol, and parasites detected with rabbit anti-SAG1 antibody for T. gondii or rabbit anti-gp15 for C. parvum as we have described previously. […] This CE11 line is transiently transfected with a plasmid that expresses nanoluciferase from a B. divergens promoter and green fluorescence protein-blasticidin (gfp-bsd) from the selection cassette. […]

[2] = system: C. parvum; assay: Immunofluorescence assay (anti-gp15) of C. parvum-infected HCT8 cells; assay type: cell-based, Cryptosporidium parvum; conditions: 60 nM trtE, 12 hours, HCT8 cells infected 8 hours
Protocol: We had postulated that secondary metabolites generated by symbiotic bacteria of invertebrates might include compounds that target gregarines, an ancient group of apicomplexans found in most, and perhaps all, invertebrates. The only gregarines known to infect mammals are Cryptosporidium species, gastrointestinal parasites that cause diarrheal disease in humans and other mammals. HCT8 cells were infected with luciferase-expressing Cryptosporidium parvum parasites for 24 hours, then two-fold dilutions of trtE added to the infected cells. 48 hours after the addition of trtE, parasite growth was quantified by luciferase expression. […]
For all IFAs, the investigator reading the slides and collecting images was blind to the sample treatment. […] 24 hours post treatment, infected cells were fixed with methanol, and parasites detected with rabbit anti-SAG1 antibody for T. gondii or rabbit anti-gp15 for C. parvum as we have described previously. […] This CE11 line is transiently transfected with a plasmid that expresses nanoluciferase from a B. divergens promoter and green fluorescence protein-blasticidin (gfp-bsd) from the selection cassette. […] Mean background levels were determined for individual images by assaying areas lacking cells, and the values were subtracted, whereas maximum fluorescent values were individually set as the upper limit. […]

`CC1CCC=CC=CCCC(O)CC(=O)CC2CCC(C)C3(O2)O[B-]24OC(C(=O)O1)C1(OC(CCC1C)CC(=O)CC(O)CCC=CC=CCCC(C)OC(=O)C3O2)O4` (centres unmarked) [trtE, tartrolon E] was tested. Which “Effect of purified trtE on intracellular T. gondii (IFA)” value [1] did it give?
The value was “inhibited intracellular T. gondii growth”.

What about the “Morphology of trtE treated C. parvum (IFA)” value [2] of the same molecule?
Its value is “no visible intact merozoites; also recorded: few discernable parasites”.
